Experiment: Solubility measurement (compound dissolved in solvent, left 1 day, precipitate checked by Tyndall effect)
Assay type: physicochemical
Settings: dissolved in a solvent, left to stand for 1 day, laser / Tyndall effect
Method: In the present specification, the “solubility” means a property in which a solute is dissolved in a specific solvent, and may be denoted as a g value of the solute that may be dissolved in 100 g of the solvent at a predetermined temperature.
The method of measuring the solubility is as follows. First, after a compound was dissolved in a solvent, the resulting solution was left to stand for 1 day. Thereafter, by passing a laser through the solution, it was observed whether a precipitate was formed through the Tyndall effect, and the solubility was measured.

SMILES | Solubility
C[Si](C)(C)c1ccc(N(c2ccccc2)c2ccc3ccc4c(N(c5ccccc5)c5ccc([Si](C)(C)C)cc5)ccc5ccc2c3c54)cc1 [Compound C] | 0.1 wt %
c1ccc([Si](c2ccccc2)(c2ccccc2)c2ccc(-c3ccc(N(c4ccc(-c5ccc6c(c5)oc5ccccc56)cc4)c4cc5ccc6cccc7ccc(c4)c5c67)cc3)cc2)cc1 [Compound F] | 2 wt %
c1ccc([Si](c2ccccc2)(c2ccccc2)c2ccc(-c3ccc(N(c4ccc(-c5cccc6c5oc5ccccc56)cc4)c4cc5ccc6cccc7ccc(c4)c5c67)cc3)cc2)cc1 [Compound E] | 2 wt %
C[Si](C)(C)c1ccc(-c2ccc(N(c3ccc4ccc5c(N(c6ccc(-c7ccc([Si](C)(C)C)cc7)cc6)c6cccc7c6oc6ccccc67)ccc6ccc3c4c65)c3cccc4c3oc3ccccc34)cc2)cc1 [Compound D] | 0.05 wt %

— patent US11557737B2, “Compound, coating composition comprising same, organic light-emitting element using same, and manufacturing method therefor” (LG Chem, Ltd., priority 2018, dated 2023)
